Measurements as given in the supplement of paper PMC4932681.

What was measured:
[1] = system: T-47D; experiment: relative IC50 (midpoint of fitted logistic curve, plateau may be below 50% inhibition; CellTiter-Glo viability); higher = less potent; settings: 72 h
Summary of the method: (§1)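 Drug sensitivity score, relative IC50 as the curve midpoint, and top-dose inhibition were derived from logistic dose–response fits in the Breeze pipeline. These fits used CellTiter-Glo viability, read on a PHERAstar and normalised to vehicle-only and positive controls. Breast cancer cell lines and resistant derivatives had been incubated for 72 h at 37 °C in 384-well plates holding library drugs at five concentrations spanning a 10 000-fold range. Resistant lines were grown in medium with 1 μM of the selecting drug.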

[2] = system: ZR-75-1 Tam1; experiment: as above; settings: 4-OH-tamoxifen in medium 1 µM; 72 h
Summary of the method: as §1

[3] = system: T-47D Tam2; experiment: as above; settings: 4-OH-tamoxifen in medium 1 µM; 72 h
Summary of the method: as §1

[4] = system: BT-474 Tam1; experiment: as above; settings: 4-OH-tamoxifen in medium 1 µM; 72 h
Summary of the method: as §1

[5] = system: ZR-75-1 Tam2; experiment: as above; settings: 4-OH-tamoxifen in medium 1 µM; 72 h
Summary of the method: as §1

[6] = system: T-47D Tam1; experiment: as above; settings: 4-OH-tamoxifen in medium 1 µM; 72 h
Summary of the method: as §1

[7] = system: ZR-75-1; experiment: as above; settings: 72 h
Summary of the method: as §1

[8] = system: MCF-7; experiment: as above; settings: 72 h
Summary of the method: as §1

[9] = system: T-47D; experiment: drug sensitivity score (DSS) (DSS (dimensionless)); higher = more sensitive; extreme values may be limits of the assay; settings: 72 h
Experimental: (§2)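 FIMM FO2B library drugs were tested at 5 concentrations (10,000-fold range) for 72 h, with CellTiter-Glo viability normalised to DMSO and benzethonium chloride controls. The Drug Sensitivity Score (DSS) is computed from the fitted logistic dose-response curve (area-based; 0 = inactive). Resistant lines and the 'in 1µM tamoxifen' arms were tested in 1 µM 4-OH-tamoxifen.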

[10] = system: BT-474; experiment: as above; settings: 72 h
Experimental: as §2

[11] = system: BT-474 Tam2; experiment: as above; settings: 4-OH-tamoxifen in medium 1 µM; 72 h
Experimental: as §2

[12] = system: ZR-75-1 Tam1; experiment: as above; settings: 4-OH-tamoxifen in medium 1 µM; 72 h
Experimental: as §2

[13] = system: T-47D Tam2; experiment: as above; settings: 4-OH-tamoxifen in medium 1 µM; 72 h
Experimental: as §2

[14] = system: BT-474 Tam1; experiment: as above; settings: 4-OH-tamoxifen in medium 1 µM; 72 h
Experimental: as §2

[15] = system: ZR-75-1 Tam2; experiment: as above; settings: 4-OH-tamoxifen in medium 1 µM; 72 h
Experimental: as §2

[16] = system: T-47D Tam1; experiment: as above; settings: 4-OH-tamoxifen in medium 1 µM; 72 h
Experimental: as §2

[17] = system: ZR-75-1; experiment: as above; settings: 72 h
Experimental: as §2

[18] = system: MCF-7; experiment: as above; settings: 72 h
Experimental: as §2

[19] = system: MCF-7 Tam1; experiment: as above; settings: 4-OH-tamoxifen in medium 1 µM; 72 h
Experimental: as §2

[20] = system: BT-474; experiment: relative IC50 (midpoint of fitted logistic curve, plateau may be below 50% inhibition; CellTiter-Glo viability); higher = less potent; settings: 72 h
Summary of the method: as §1

[21] = system: BT-474 Tam2; experiment: as above; settings: 4-OH-tamoxifen in medium 1 µM; 72 h
Summary of the method: as §1

| SMILES | relative IC50 ([1]; 4-OH-tamoxifen in medium 0 µM) [nM] | relative IC50 [2] [nM] | relative IC50 [3] [nM] | relative IC50 [4] [nM] | relative IC50 [5] [nM] | relative IC50 [6] [nM] | relative IC50 ([7]; 4-OH-tamoxifen in medium 0 µM) [nM] | relative IC50 ([7]; 4-OH-tamoxifen in medium 1 µM) [nM] | relative IC50 ([8]; 4-OH-tamoxifen in medium 0 µM) [nM] | relative IC50 ([8]; 4-OH-tamoxifen in medium 1 µM) [nM] | drug sensitivity score ([9]; 4-OH-tamoxifen in medium 0 µM) | drug sensitivity score ([9]; 4-OH-tamoxifen in medium 1 µM) | drug sensitivity score ([10]; 4-OH-tamoxifen in medium 0 µM) | drug sensitivity score ([10]; 4-OH-tamoxifen in medium 1 µM) | drug sensitivity score [11] | drug sensitivity score [12] | drug sensitivity score [13] | drug sensitivity score [14] | drug sensitivity score [15] | drug sensitivity score [16] | drug sensitivity score ([17]; 4-OH-tamoxifen in medium 0 µM) | drug sensitivity score ([17]; 4-OH-tamoxifen in medium 1 µM) | drug sensitivity score ([18]; 4-OH-tamoxifen in medium 0 µM) | drug sensitivity score ([18]; 4-OH-tamoxifen in medium 1 µM) | drug sensitivity score [19] | relative IC50 ([20]; 4-OH-tamoxifen in medium 0 µM) [nM] | relative IC50 ([20]; 4-OH-tamoxifen in medium 1 µM) [nM] | relative IC50 ([1]; 4-OH-tamoxifen in medium 1 µM) [nM] | relative IC50 [21] [nM] |
| --- | --- | --- | --- | --- | --- | --- | --- | --- | --- | --- | --- | --- | --- | --- | --- | --- | --- | --- | --- | --- | --- | --- | --- | --- | --- | --- | --- | --- | --- |
| OC[C@H]1O[C@@H](n2cnc3c2N=CNC[C@H]3O)C[C@@H]1O [Pentostatin] | 1900 | 2930 | 1450 | 2110 | 1310 | 1320 | 1580 | 1140 | 1540 | 1320 | 3.58 | 2.45 | 0.324 | 0.0318 | 0.106 | 2.62 | 3.19 | 1.97 | 3.72 | 4.83 | 4.39 | 3.83 | 4.26 | 2.79 | 0.721 |  |  |  |  |
| CCS(=O)(=O)c1cccc(-c2cc(C(=O)NC3CCN(C)CC3)c(C)c3[nH]c4ncc(C)cc4c23)c1 [TAK-901] | 182 | > 1000 | 93.3 | 371 | > 1000 | 138 | > 1000 | > 1000 |  |  | 3.25 | 0.53 | 0 | 3.36 | 2.87 | 0 | 2.96 | 1.12 | 0 | 6.67 | 0 | 0 | 0.354 | 2.84 | 0 | > 1000 | 90.5 |  |  |
| C[C@]12O[C@H](C[C@]1(O)CO)n1c3ccccc3c3c4c(c5c6ccccc6n2c5c31)CNC4=O [Lestaurtinib] | > 1000 | > 1000 | > 1000 | 349 |  | > 1000 | > 1000 |  |  | > 1000 | 0 | 0.579 | 0.345 | 3.7 | 0.589 | 0 | 0 | 2.16 | 0.0147 | 0 | 0 | 0 | 0.382 | 0 | 0.391 |  | 160 |  |  |
| NC1(c2ccc(-c3nc4ccn5c(=O)[nH]nc5c4cc3-c3ccccc3)cc2)CCC1 [MK-2206] | 114 | 68.5 | 111 | 170 | 78.2 | 101 | 73.6 | 54.6 | 315 | 119 | 5.76 | 2.9 | 1.68 | 2.54 | 0.553 | 7.57 | 5.54 | 4.04 | 7.96 | 5.11 | 6.86 | 7.22 | 1.67 | 4.73 | 2.56 |  | 335 | 177 |  |
| CS(=O)(=O)c1ccc(C(=O)Nc2ccc(Cl)c(-c3ccccn3)c2)c(Cl)c1 [Vismodegib] | > 10000 | > 10000 | > 10000 |  |  | > 10000 | > 10000 | > 10000 | > 10000 | > 10000 | 0 | 0 | 0 | 0 | 0 | 0 | 0 | 0.264 | 0 | 0 | 0 | 0 | 0 | 0 | 0 | > 10000 | > 10000 | > 10000 | > 10000 |
| CC[C@]1(O)C[C@H]2CN(CCc3c([nH]c4ccccc34)[C@@](C(=O)OC)(c3cc4c(cc3OC)N(C=O)[C@H]3[C@@](O)(C(=O)OC)[C@H](OC(C)=O)[C@]5(CC)C=CCN6CC[C@]43[C@@H]65)C2)C1 [Vincristine] | 4.41 |  | 26.8 | 20.9 | 116 | 38.5 | 3.69 | 21.5 | 24.9 | 26.5 | 13.8 | 6.49 | 21.4 | 31.3 | 30.8 | 7.19 | 17.3 | 30.7 | 8.05 | 19.3 | 17.3 | 10.9 | 19.1 | 16.8 | 0.209 | 2.33 | 11.9 | 88.1 | 14.2 |
| COc1cc2ncnc(Nc3ccc(F)c(Cl)c3)c2cc1OCCCN1CCOCC1 [Gefitinib] |  |  | 1410 | 65.4 |  | > 10000 |  |  |  | 4190 | 0.0062 | 0 | 9.4 | 22.7 | 20.3 | 1.51 | 4.57 | 24.9 | 1.16 | 0 | 0.0359 | 1.45 | 2.5 | 1.2 | 0 | 1030 | 115 | > 10000 | 176 |
| C#Cc1cccc(Nc2ncnc3cc(OCCOC)c(OCCOC)cc23)c1 [Erlotinib] |  |  | 370 | 1370 |  | 1230 | > 10000 |  | > 10000 | > 10000 | 0.57 | 0 | 3.4 | 9.97 | 7.08 | 0.136 | 5.31 | 9.3 | 0.0461 | 3.91 | 0 | 0.0315 | 0 | 0 | 0.0215 | 1770 | 1250 | > 10000 | 1960 |
